Experimental data as given in PubChem BioAssay (NCI).
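Protocol summary: plate cells (96-well), add compound at 5 concentrations, incubate 48 h, interpolate endpoints linearly. GI50 is the concentration that inhibits growth by half. TGI marks complete inhibition of growth.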

Experiments:
Test in all cases: NCI tumour cell line growth inhibition, 48 h
SF-268 CNS = system: SF-268 CNS
EKVX NSCLC = system: EKVX NSCLC
NCI-H23 lung = system: NCI-H23 lung
SW-620 colon = system: SW-620 colon
NCI-H226 lung = system: NCI-H226 lung
MOLT-4 leukemia = system: MOLT-4 leukemia
NCI/ADR-RES ovarian = system: NCI/ADR-RES ovarian
TK-10 renal = system: TK-10 renal
COLO 205 colon = system: COLO 205 colon
SK-MEL-2 melanoma = system: SK-MEL-2 melanoma

CCOC(=O)C1=C(C)NC(c2ccccc2)=C(C(=O)OCc2ccccc2)C1C#Cc1ccccc1 (stereo not given)
TGI (SF-268 CNS): > 100 µM
TGI (EKVX NSCLC): > 100 µM
TGI (NCI-H23 lung): > 100 µM
TGI (SW-620 colon): > 100 µM
TGI (NCI-H226 lung): > 100 µM
TGI (MOLT-4 leukemia): > 100 µM
TGI (NCI/ADR-RES ovarian): > 100 µM
TGI (TK-10 renal): > 100 µM
TGI (COLO 205 colon): > 100 µM
TGI (SK-MEL-2 melanoma): > 100 µM

Cc1cccc(N=Nc2ccc(O)c(CN(C)C)c2)c1
TGI (SF-268 CNS): > 100 µM
TGI (EKVX NSCLC): 58.1 µM
TGI (NCI-H23 lung): > 100 µM
TGI (SW-620 colon): 66.8 µM
TGI (NCI-H226 lung): > 100 µM
TGI (MOLT-4 leukemia): 91.6 µM
TGI (NCI/ADR-RES ovarian): 72.6 µM
TGI (TK-10 renal): 72.4 µM
TGI (COLO 205 colon): 28.6 µM
TGI (SK-MEL-2 melanoma): 47.6 µM

Cc1ccnc2[nH]c(-c3ccc(Cl)cc3)cc(=O)c12
TGI (SF-268 CNS): > 100 µM
TGI (EKVX NSCLC): > 100 µM
TGI (NCI-H23 lung): > 100 µM
TGI (SW-620 colon): > 100 µM
TGI (NCI-H226 lung): > 30.7 µM
TGI (MOLT-4 leukemia): > 100 µM
TGI (NCI/ADR-RES ovarian): > 100 µM
TGI (TK-10 renal): > 100 µM
TGI (COLO 205 colon): > 21.9 µM
TGI (SK-MEL-2 melanoma): > 100 µM

C=C1C(O)C2OC(=O)C(=C)C2C(OC(=O)/C(C)=C/C)CC2(C)OC2C2OC12 (stereo not given)
TGI (SF-268 CNS): > 100 µM
TGI (EKVX NSCLC): 33 µM
TGI (NCI-H23 lung): 35.3 µM
TGI (SW-620 colon): > 100 µM
TGI (NCI-H226 lung): > 100 µM
TGI (MOLT-4 leukemia): 31.2 µM
TGI (NCI/ADR-RES ovarian): > 100 µM
TGI (TK-10 renal): 47.2 µM
TGI (COLO 205 colon): 31.4 µM
TGI (SK-MEL-2 melanoma): 38.4 µM

O=C(/C=C/c1cc2ccccc2[nH]c1=O)c1ccc(O)cc1
GI50 (SF-268 CNS): 3.76 µM
TGI (SF-268 CNS): 23.3 µM
GI50 (EKVX NSCLC): 13.4 µM
TGI (EKVX NSCLC): 27.2 µM
GI50 (NCI-H23 lung): 3.18 µM
TGI (NCI-H23 lung): 20 µM
GI50 (SW-620 colon): 1.89 µM
TGI (SW-620 colon): 4.45 µM
GI50 (NCI-H226 lung): 3.29 µM
TGI (NCI-H226 lung): 10.9 µM
GI50 (MOLT-4 leukemia): 3.04 µM
TGI (MOLT-4 leukemia): 9.91 µM
GI50 (NCI/ADR-RES ovarian): 2.9 µM
TGI (NCI/ADR-RES ovarian): > 100 µM
GI50 (TK-10 renal): 3.81 µM
TGI (TK-10 renal): 11.8 µM
GI50 (COLO 205 colon): 4.51 µM
TGI (COLO 205 colon): 19.7 µM
GI50 (SK-MEL-2 melanoma): 4.13 µM
TGI (SK-MEL-2 melanoma): 13.6 µM

c1ccc(C(OCCN2CC3CCC(C2)N3)c2ccccc2)cc1
TGI (SF-268 CNS): > 100 µM
TGI (EKVX NSCLC): > 100 µM
TGI (NCI-H23 lung): > 100 µM
TGI (SW-620 colon): > 100 µM
TGI (NCI-H226 lung): > 100 µM
TGI (MOLT-4 leukemia): > 100 µM
TGI (NCI/ADR-RES ovarian): > 100 µM
TGI (TK-10 renal): > 100 µM
TGI (COLO 205 colon): 42.2 µM
TGI (SK-MEL-2 melanoma): > 100 µM

C1=Nc2ccc(cc2)-c2ccc(cc2)N=Cc2ccccc2OCc2cccc(n2)COc2ccccc21
TGI (SF-268 CNS): > 100 µM
TGI (EKVX NSCLC): > 100 µM
TGI (NCI-H23 lung): 45.9 µM
TGI (SW-620 colon): > 100 µM
TGI (NCI-H226 lung): > 100 µM
TGI (MOLT-4 leukemia): > 100 µM
TGI (NCI/ADR-RES ovarian): > 100 µM
TGI (TK-10 renal): > 93.3 µM
TGI (COLO 205 colon): > 100 µM
TGI (SK-MEL-2 melanoma): > 76.3 µM

CN1CN(c2ccccc2)C2(CCN(C(=O)OC(C)(C)C)CC2)C1=O
TGI (SF-268 CNS): > 100 µM
TGI (EKVX NSCLC): > 100 µM
TGI (NCI-H23 lung): > 100 µM
TGI (SW-620 colon): > 100 µM
TGI (NCI-H226 lung): > 100 µM
TGI (MOLT-4 leukemia): > 100 µM
TGI (NCI/ADR-RES ovarian): > 100 µM
TGI (TK-10 renal): > 100 µM
TGI (COLO 205 colon): > 100 µM
TGI (SK-MEL-2 melanoma): > 100 µM

CC(=O)[C@H]1CC[C@@H]2[C@]1(C)CC=C1[C@]23C=C[C@]2(C[C@@H](O)CC[C@]12C)C(C(=O)O)C3C(=O)O (stereo not given in full)
TGI (SF-268 CNS): > 100 µM
TGI (EKVX NSCLC): > 100 µM
TGI (NCI-H23 lung): > 100 µM
TGI (SW-620 colon): > 100 µM
TGI (NCI-H226 lung): > 100 µM
TGI (MOLT-4 leukemia): > 100 µM
TGI (NCI/ADR-RES ovarian): > 100 µM
TGI (TK-10 renal): > 100 µM
TGI (COLO 205 colon): > 100 µM
TGI (SK-MEL-2 melanoma): > 100 µM

CCc1c[n+]2c(cc1C1=CN3c4ccccc4[C@]45CCN6C/C(=C/CO)[C@H](C[C@H]64)[C@@H]([C@@H]1O)[C@H]35)-c1[nH]c3ccccc3c1CC2
TGI (SF-268 CNS): > 50 µM
TGI (EKVX NSCLC): > 50 µM
TGI (NCI-H23 lung): > 50 µM
TGI (SW-620 colon): > 50 µM
TGI (NCI-H226 lung): > 50 µM
TGI (MOLT-4 leukemia): > 50 µM
TGI (NCI/ADR-RES ovarian): > 50 µM
TGI (TK-10 renal): > 50 µM
TGI (COLO 205 colon): > 50 µM
TGI (SK-MEL-2 melanoma): > 50 µM

CC(=O)O[C@H]1C(=O)[C@@]2(C)C(C(OC(=O)c3ccccc3)[C@]3(O)CC(OC(=O)C(O)C(NC(=O)c4cccc(Cl)c4)c4ccccc4)C(C)=C1C3(C)C)[C@]1(OC(C)=O)CO[C@@H]1C[C@@H]2O (stereo not given in full)
TGI (SF-268 CNS): > 10 µM
TGI (EKVX NSCLC): > 10 µM
TGI (NCI-H23 lung): > 10 µM
TGI (SW-620 colon): > 10 µM
TGI (NCI-H226 lung): > 10 µM
TGI (MOLT-4 leukemia): > 10 µM
TGI (NCI/ADR-RES ovarian): > 10 µM
TGI (TK-10 renal): > 10 µM
TGI (COLO 205 colon): 4.58 µM
TGI (SK-MEL-2 melanoma): > 10 µM

CCOP(=O)(OCC)C(Cc1cn(S(=O)(=O)c2ccc(C)cc2)cn1)C(=O)O (stereo not given)
TGI (SF-268 CNS): > 100 µM
TGI (EKVX NSCLC): > 100 µM
TGI (NCI-H23 lung): > 100 µM
TGI (SW-620 colon): > 100 µM
TGI (NCI-H226 lung): > 100 µM
TGI (MOLT-4 leukemia): > 100 µM
TGI (NCI/ADR-RES ovarian): > 100 µM
TGI (TK-10 renal): > 100 µM
TGI (COLO 205 colon): > 100 µM
TGI (SK-MEL-2 melanoma): > 100 µM

COC(=O)c1cc(NC(=O)Cn2c3ccccc3c3ccccc32)cn1C
TGI (SF-268 CNS): > 100 µM
TGI (EKVX NSCLC): > 100 µM
TGI (NCI-H23 lung): > 100 µM
TGI (SW-620 colon): > 100 µM
TGI (NCI-H226 lung): 58.5 µM
TGI (MOLT-4 leukemia): > 100 µM
TGI (NCI/ADR-RES ovarian): > 100 µM
TGI (TK-10 renal): > 100 µM
TGI (COLO 205 colon): > 100 µM
TGI (SK-MEL-2 melanoma): > 100 µM

CN(C)CCNC(=O)c1cccc2c(NC(CCCN=C(N)N)C(=O)O)c3ccccc3nc12 (stereo not given)
TGI (SF-268 CNS): 27.7 µM
TGI (EKVX NSCLC): 30.1 µM
TGI (NCI-H23 lung): 30.5 µM
TGI (SW-620 colon): > 100 µM
TGI (NCI-H226 lung): 22.8 µM
TGI (MOLT-4 leukemia): > 100 µM
TGI (NCI/ADR-RES ovarian): 25.1 µM
TGI (TK-10 renal): > 100 µM
TGI (COLO 205 colon): > 100 µM
TGI (SK-MEL-2 melanoma): 38.4 µM

COc1cc(/C=[N+](\[O-])c2ccccc2Cl)ccc1OC(=S)S
TGI (SF-268 CNS): > 100 µM
TGI (EKVX NSCLC): > 100 µM
TGI (NCI-H23 lung): > 100 µM
TGI (SW-620 colon): > 100 µM
TGI (NCI-H226 lung): > 100 µM
TGI (MOLT-4 leukemia): > 100 µM
TGI (NCI/ADR-RES ovarian): 76.4 µM
TGI (TK-10 renal): > 100 µM
TGI (COLO 205 colon): 51 µM
TGI (SK-MEL-2 melanoma): > 100 µM
